Test results published in patent publication US7815918B2, “Polypeptides and immunogenic conjugates capable of inducing antibodies against pathogens, and uses thereof” (priority 2003, dated 2010).
Entries after “also recorded” stand apart in the source; their conditions may differ. Ends that are not written are not given here.

Assays:
mAb 4F11(G1) [1] = test: Western blot of purified recombinant thioredoxin fusion proteins probed with mAb 4F11; type: binding, mouse; settings: for reactivity with mAb 4F11 in Western blot: purified thioredoxin fusion protein separated by SDS-PAGE
Excerpt: MAb 4F11 was produced as described (Lee et al., “Molecular Characterization of KEX1, a Kexin-Like Protease in Mouse Pneumocystis carinii,” Gene 242:141-150 (2000), which is hereby incorporated by reference in its entirety). For colony immunoscreens and P. carinii immunofluorescence assays (IFAs), mAb 4F11 IgM ascites fluid was used at a 1:5000 dilution. For enzyme-linked immunosorbent assays (ELISA) and Western blots of purified recombinant proteins an IgG1 switch-variant of mAb 4F11(G1) (Gigliotti et al., “Passive Intranasal Monoclonal Antibody Prophylaxis Against Murine Pneumocystis carinii Pneumonia,” Infect. Immun. 70:1069-1074 (2002), which is hereby incorporated by reference in its entirety) was prepared by saturated ammonium sulfate precipitation of tissue culture supernatant and used at the indicated dilutions. MAb 2B5 is an IgG1 that recognizes a mouse P. carinii gpA (Gigliotti et al., “Antibody-Mediated Shift in the Profile of Glycoprotein A Phenotypes Observed in a Mouse Model of Pneumocystis carinii Pneumonia,” Infect. Immun. 64:1892-1899 (1996), which is hereby incorporated by reference in its entirety) and was used as a negative control in S. pneumoniae immunoblots and IFAs. MAb 1C7 is an anti-mouse P. carinii IgM used as an isotype control in IFAs against P. carinii derived from different hosts. Pooled hyperimmune sera against mouse P. carinii was obtained as described previously (Gigliotti et al., “Development of Murine Monoclonal Antibodies to Pneumocystis carinii,” J. Infect. Dis. 154:315-322 (1986), which is hereby incorporated by reference in its entirety).
To confirm reactivity of E. coli pSCREEN transformants with mAb 4F11, 5 mL overnight cultures were pelleted and resuspended in 200 μL of 1× Laemmli SDS running/sample buffer+5% β-mercaptoethanol, and 20 μL samples were separated on NuPAGE Bis-Tris 4-12% gels (Invitrogen) by SDS-PAGE. S. pneumoniae from blood agar plates was grown in 5 mL THY overnight, 1 mL aliquots were pelleted, resuspended in 200 μL 1× sample buffer, and 20 μL were resolved by SDS-PAGE. Purified recombinant protein was suspended in sample buffer in equal concentrations and separated as described for cell lysates. Western blots were performed as previously described (Lee et al., “Molecular Characterization of KEX1, a Kexin-Like Protease in Mouse Pneumocystis carinii,” Gene 242:141-150 (2000), which is hereby incorporated by reference in its entirety).
Production of 6×His-tagged thioredoxin fusion proteins using the pBADTHIO expression system in E. coli was performed following the manufacturer's instructions. Briefly, overnight cultures were diluted 1:40 in fresh LB+100 μg/mL ampicillin and grown at 37° C. with shaking to absorbance at 600 nm of approximately 0.5. For fusion protein induction, arabinose was added to a final concentration of 0.02% and cultures were grown an additional 5 hr at 37° C. with shaking. Cells were pelleted by centrifugation at 1000×g then resuspended in ⅕ original culture volume with lysis buffer (50 mM sodium phosphate, 6 M guanidine-HCl, 300 mM NaCl) and vortexed vigorously. Debris was pelleted by centrifugation at 10,000×g at 4° C. The supernatants were passed over a TALON affinity resin column (BD Biosciences, Palo Alto, Calif.) that had been pre-equilibrated with lysis buffer. The columns were then washed twice with 10 mL 50 mM sodium phosphate, 300 mM NaCl. The fusion proteins were eluted with 2 mL buffer containing 50 mM sodium phosphate, 300 mM NaCl, and 150 mM imidazole. The eluted protein was dialyzed overnight against PBS at 4° C. and concentrated by vacuum centrifugation. Protein concentrations were determined using a BCA microwell assay kit (Pierce, Rockford, Ill.).

mAb 4F11(G1) [2] = test: ELISA of epitope-thioredoxin fusion constructs using mAb 4F11(G1); type: binding, mouse
Procedure: (§1) Purified recombinant protein at a concentration of 10 μg/mL in 50 mM carbonate-bicarbonate buffer pH 9.5+0.1% SDS was used to coat Costar ELISA plates (Corning Incorporated, Corning, N.Y.) 16-20 hr at 37° C. The plates were blocked with 3% BSA-TBST for 1 hr at 4° C. Primary antibody was added in two-fold serial dilutions in 3% BSA-TBST and incubated at 4° C. for 1 hr. Goat anti-mouse IgG+IgM-alkaline phosphatase conjugate secondary antibody was added at 1:5000 dilution in BSA-TBST for one hr at 4° C. Blue Phos substrate (KPL, Gaithersburg Md.) was added for 30 min, color development was stopped with 2.5% EDTA, and absorbance was read at 655 nm using a Benchmark microplate reader (Bio-Rad).
Experimental ELISA results were statistically compared to the control values using a two-tailed Student's t test. Results were considered significant if p≦0.05.

[3] = biological target: 4F11(G1) binding against plate-bound sonicated mouse P. carinii; test: Competitive (inhibition) ELISA: synthetic peptides as soluble competitors for 4F11(G1) binding to plate-bound sonicated mouse P. carinii
Excerpt: FIGS. 5A-F show the analysis of purified recombinant epitope-thioredoxin fusion proteins. FIG. 5A is a gel stained with Coomassie Blue. FIG. 5B is a Western blot using mAb 4F11(G1). FIG. 5C is a Western blot using anti-V5 epitope tag mAb. FIG. 5D is an ELISA of epitope-thioredoxin fusion constructs using mAb 4F11(G1). Results are plotted as the mean±standard error of triplicate experiments. […] Results are plotted as the mean±standard deviation of triplicate experiments. […] Results are plotted as the mean±standard deviation of triplicate experiments. The dashed line indicates the mean absorbance at 655 nm with no inhibitor and a 4F11(G1) dilution of 1:3200.
(§2) Mouse P. carinii Kexin 777-787 (RPAPPKPTPQP, SEQ ID NO: 56) and Kexin 131-142 (SGDTGNVNSGEK, SEQ ID NO: 57) peptides were purchased from Alpha Diagnostics (San Antonio, Tex.). ELISA experiments using the synthetic peptides were performed as described above, using 10 μg peptide/mL in carbonate-bicarbonate buffer to coat the plates. For competitive ELISA studies peptides were incubated at three fold dilutions with a starting concentration of 100 μg/mL for 2 hr with a 1:3200 dilution of mAb 4F11 at 4° C. to reach equilibrium. Mouse P. carinii sonicates in carbonate-bicarbonate buffer were used to coat ELISA plates at the equivalence of 4×10^4 cysts per well overnight at 4° C. The peptide-antibody mixtures, or antibody alone at 1:3200 dilution, were used as the primary antibody in the ELISA following the above protocol.

mAb 4F11(G1) [4] = test: ELISA of synthetic P. carinii peptides using mAb 4F11(G1); type: binding, mouse; settings: 10 μg peptide/mL coat, no fusion partner
Procedure: as §1
as §2, with “The peptide-antibody mixtures, or antibody alone at 1:3200 dilution, were used as the primary antibody in the ELISA following the above protocol.” left out

[5] = tested on: hyperimmune sera from mice immunized with whole P. carinii; test: Western blot of A12 fusion protein with hyperimmune sera from P. carinii-immunized mice; type: binding, mouse
Excerpt: MAb 4F11 was produced as described (Lee et al., “Molecular Characterization of KEX1, a Kexin-Like Protease in Mouse Pneumocystis carinii,” Gene 242:141-150 (2000), which is hereby incorporated by reference in its entirety). For colony immunoscreens and P. carinii immunofluorescence assays (IFAs), mAb 4F11 IgM ascites fluid was used at a 1:5000 dilution. For enzyme-linked immunosorbent assays (ELISA) and Western blots of purified recombinant proteins an IgG1 switch-variant of mAb 4F11(G1) (Gigliotti et al., “Passive Intranasal Monoclonal Antibody Prophylaxis Against Murine Pneumocystis carinii Pneumonia,” Infect. Immun. 70:1069-1074 (2002), which is hereby incorporated by reference in its entirety) was prepared by saturated ammonium sulfate precipitation of tissue culture supernatant and used at the indicated dilutions. MAb 2B5 is an IgG1 that recognizes a mouse P. carinii gpA (Gigliotti et al., “Antibody-Mediated Shift in the Profile of Glycoprotein A Phenotypes Observed in a Mouse Model of Pneumocystis carinii Pneumonia,” Infect. Immun. 64:1892-1899 (1996), which is hereby incorporated by reference in its entirety) and was used as a negative control in S. pneumoniae immunoblots and IFAs. MAb 1C7 is an anti-mouse P. carinii IgM used as an isotype control in IFAs against P. carinii derived from different hosts. […]

[6] = at lower mAb 4F11 dilutions, plate coated 10 μg/mL

K856PAPKPTP863 (KPAPKPTP; not fully specified; printed as K856PAPKPTP863) [Kexin856-863]
reactivity with mAb 4F11 in Western blot (mAb 4F11(G1) [1]): positive reactivity

R777PAPPKPTPQP787 [Kexin777-787]
binding with mAb 4F11 compared with Kexin856-872, based on size and intensity of the Western blot band (mAb 4F11(G1) [1]; 1 μg purified protein): enhanced binding | ELISA reactivity with mAb 4F11 (mAb 4F11(G1) [2]; at higher mAb 4F11 dilutions): greater reactivity with mAb 4F11 than did the original 17mer epitope | ELISA reactivity with mAb 4F11 (mAb 4F11(G1) [2]; [6]): highest reactivity | 50% inhibition of binding of mAb 4F11 to native P. carinii antigens ([3]; 4F11(G1) diluted 1:3200): 150 ng/mL | concentration that completely blocks binding of mAb 4F11 to native P. carinii antigens ([3]; 4F11(G1) diluted 1:3200): 1 µg/mL

E54PQPQPAP61 (EPQPQPAP; not fully specified; printed as E54PQPQPAP61) [A1254-61]
reactivity with mAb 4F11 in Western blot (mAb 4F11(G1) [1]): do not react with mAb 4F11

SGDTGNVNSGEK [Kex131-142, reference compound]
ELISA reactivity of synthetic peptide to mAb 4F11 (mAb 4F11(G1) [4]): did not react | inhibition of binding of mAb 4F11 to native P. carinii antigens ([3]; at the highest concentration tested): no inhibition

thioredoxin fusion partner: thioredoxin fusion partner alone, negative control for the fusion constructs [reference compound]
reactivity with mAb 4F11 in Western blot (mAb 4F11(G1) [1]): does not react with mAb 4F11; also recorded: did not react with mAb 4F11 | reactivity with mAb 4F11 in Western blot (mAb 4F11(G1) [1]; listed as fusion partner): did not react with mAb 4F11

K865PAPKPAP872 (KPAPKPAP; not fully specified; printed as K865PAPKPAP872) [Kexin865-872]
reactivity with mAb 4F11 in Western blot (mAb 4F11(G1) [1]): positive reactivity

K856PAPKPTPPKPAPKPAP872 (KPAPKPTPPKPAPKPAP; not fully specified; printed as K856PAPKPTPPKPAPKPAP872) [Kexin856-872]
ELISA reactivity with mAb 4F11 (mAb 4F11(G1) [2]; [6]): highest reactivity

K62PRPQPTSKPRPQPTP77 (KPRPQPTSKPRPQPTP; not fully specified; printed as K62PRPQPTSKPRPQPTP77) [A1262-77]
ELISA reactivity to mAb 4F11 (mAb 4F11(G1) [2]; at 1:800 or greater dilution): only background reactivity | ELISA reactivity with mAb 4F11 (mAb 4F11(G1) [2]; [6]): lower reactivity, but significantly higher than the thioredoxin fusion partner alone

E46PRPQPTS53 (EPRPQPTS; not fully specified; printed as E46PRPQPTS53) [A1246-53]
reactivity with mAb 4F11 in Western blot (mAb 4F11(G1) [1]): do not react with mAb 4F11

K70PRPQPTP77 (KPRPQPTP; not fully specified; printed as K70PRPQPTP77) [A1270-77]
reactivity with mAb 4F11 in Western blot (mAb 4F11(G1) [1]): positive reactivity

RPAPPKPTPQP [Kex777-787]
ELISA reactivity of synthetic peptide to mAb 4F11 (mAb 4F11(G1) [4]): high reactivity

B1: URSP2 PspA: recombinant thioredoxin fusion protein containing the α-helical domain, clade defining region and proline-rich repeat region of URSP2 PspA (protein)
chain: EKELKEIDESDSEDYIKEGLRAPLQSKLDAKKAKLSKLEELSDKIDELDAEIAKLEKDVEDFKNSDGEQAEQYLVAAKKDLDAKKAELENTEADLKKAVDEPETPAPAPKPAPAPAPTPEAPAPAPKPAPAPKPAPAPAPTPEAPAPAPKPAPAPKPAPAPAPTPEAPAPAPKPAPAPRPAPAPKPAPDPKP
modifications: left off: large carriers
reactivity with mAb 4F11 in Western blot (mAb 4F11(G1) [1]): shown to react with mAb 4F11

B2: A121-142: truncated A12 molecule, residues 1-142 of SEQ ID NO: 5, expressed as thioredoxin fusion protein (protein)
chain: TNISEPALPDKDPQPTSSPQPKPRPRPRPQPQPHPHPKPQPQPTPEPQPQPAPEPRPQPTSKPRPQPTSKPRPQPTPEPRPLPVPGPGPLPVPGPRPQPQPQPQPQPQPQPQPQPQPQPQPQPQPQPQPQPKPQPPSQSTSE
modifications: thioredoxin fusion partner
reactivity with mAb 4F11 in Western blot (mAb 4F11(G1) [1]): reacted with mAb 4F11

B3: A121-82: truncated A12 molecule, residues 1-82 of SEQ ID NO: 5, expressed as thioredoxin fusion protein (protein)
chain: TNISEPALPDKDPQPTSSPQPKPRPRPRPQPQPHPHPKPQPQPTPEPQPQPAPEPRPQPTSKPRPQPTSKPRPQPTPEPRPL
modifications: thioredoxin fusion partner
reactivity with mAb 4F11 in Western blot (mAb 4F11(G1) [1]): reacted with mAb 4F11 | reactivity with hyperimmune sera in Western blot [5]: reacted with hyperimmune sera
